Where no end group is shown, it is not given here.
What was measured:
Rat islets = assay: In vitro bioassay with islet cell static cultures (insulin secretion, ELISA); format: cell-based; conditions: for Insulin secreted: Table 2, 120 min incubation; for Concentration at which maximal activity was exhibited in the assay: islet static culture, insulin secretion; for Average Insulin secreted: Table 3
Method: Islet isolation. […] Generally, the islets were prepared by injecting collagenase (10 mL of 0.23 mg/mL Liberase, Roche Molecular Biochemicals, Indianapolis, Ind.) into the pancreatic duct of the partially dissected pancreas and surgically removing it. All procedures were approved by the Institutional Animal Care and Use Committee at the University of Washington.
The pancreata were placed into 15 mL conical tubes containing 5 mL of 0.23 mg/mL Liberase and incubated at 37° C. for 30 min. The digestate was then filtered through a 400-micrometer stainless steel screen, rinsed with Hanks' buffered salt solution, and purified in a gradient solution of Optiprep (Nycomed, Oslo, Norway).
Bioassay. Islets were picked under a microscope and placed into 10 ml 3 mM Krebs Ringer Buffer (KRB) solution for washing. Islets were incubated in 3 mM glucose KRB for 60 min and then groups of 10 islets per well were placed into 200 μl media in a 96-well plate. […] The buffer conditions were KRB with 0.1% BSA, 20 mM HEPES and the assay was performed in quadruplicate. Supernatants were evaluated for insulin content using a commercial insulin enzyme-linked immunosorbent (ELISA) assay per manufacturer's directions.

db/db mice = assay: In vivo bioassay: blood glucose in db/db mice after intraperitoneal injection; conditions: for Mean Blood Glucose Levels: i.p.; for Activity (reduced plasma glucose), in words: high dose
Method: Tested Study Groups. Naïve, 8 weeks old female db/db mice were acclimated for one week, during which period animals were handled periodically to allow them to be acclimated to experiment procedures. Study groups contained 6 mice per group and were administered with one of the following by intraperitoneal injection:
(2) Positive control (exendin-4 or other standard treatment);
(3) Polypeptide Analog at high dose; or
(4) Polypeptide Analog at low dose.
A small volume of blood was taken from a cut at the tip of tail for blood sampling. Blood glucose levels were determined on a commercial, hand-held glucose meter. On Day 1, animals were injected with polypeptide analogs and controls in the morning. Blood samples were taken and analyzed immediately before injection and at 2, 4, 8, 14, and 24 hours after injection. Animals were allowed to feed, ad libitem, throughout the assay (Tsutsumi et al., Diabetes 51:1453-60 (2002)).

[1] = High dose, 0 hr (immediately before injection)
[2] = High dose, 2 hr after injection
[3] = High dose, 4 hr after injection
[4] = High dose, 8 hr after injection
[5] = High dose, 14 hr after injection
[6] = High dose, 24 hr after injection
[7] = Low dose, 0 hr (immediately before injection)
[8] = Low dose, 14 hr after injection
[9] = Low dose, 24 hr after injection

Substance | Insulin secreted (Rat islets; 50 nM peptide + 16 mM glucose) | Insulin secreted (Rat islets; 200 nM peptide + 16 mM glucose) | Concentration at which maximal activity was exhibited in the assay (Rat islets) | Mean Blood Glucose Levels (db/db mice; [1]) | Mean Blood Glucose Levels (db/db mice; [2]) | Mean Blood Glucose Levels (db/db mice; [3]) | Mean Blood Glucose Levels (db/db mice; [4]) | Mean Blood Glucose Levels (db/db mice; [5]) | Mean Blood Glucose Levels (db/db mice; [6]) | Mean Blood Glucose Levels (db/db mice; [7]) | Mean Blood Glucose Levels (db/db mice; Low dose, 2 hr after injection) | Mean Blood Glucose Levels (db/db mice; Low dose, 4 hr after injection) | Mean Blood Glucose Levels (db/db mice; Low dose, 8 hr after injection) | Mean Blood Glucose Levels (db/db mice; [8]) | Mean Blood Glucose Levels (db/db mice; [9]) | Activity (reduced plasma glucose), in words (db/db mice; 2 hr after injection) | Activity (reduced plasma glucose), in words (db/db mice; 4 hrs post dosing) | Average Insulin secreted (Rat islets; 10 nM peptide + 16 mM glucose) | Average Insulin secreted (Rat islets; 100 nM peptide + 16 mM glucose) | Average Insulin secreted (Rat islets; 1 uM peptide + 16 mM glucose)
TP-106: highly hydrophobic polypeptide analog, designed to depot in the site of sc injection; SEQ ID NO: 5 (HSDAVFTDNYTRLRKQVAAKKYLNSIKKGKRELLEKLK) | 2.72 ng/100 islets/min | 5.20 ng/100 islets/min | 200 nM | 21.8 mmol/L | 13.4 mmol/L | 14.7 mmol/L | 25.1 mmol/L | 26.3 mmol/L | 21.2 mmol/L | 23.9 mmol/L | 20.5 mmol/L | 16.1 mmol/L | 24.0 mmol/L | 28.2 mmol/L | 23.2 mmol/L | statistically significant activity | maintains activity |  |  | 
TP-107: exemplary synthetic polypeptide analog of PACAP/VIP, amino acid sequence SEQ ID NO: 6 (HSDAVFTDNYTRLRKQVAAKKYLNWIKKAKRELLEKLK; ends and bridges not checked) |  |  | 100 nM |  |  |  |  |  |  |  |  |  |  |  |  |  |  | 2.89 ng/100 islets/min | 6.10 ng/100 islets/min | 6.07 ng/100 islets/min
TP-108: exemplary synthetic polypeptide analog of PACAP/VIP, amino acid sequence SEQ ID NO: 7 (HSDAVFTDNYTRLRKQLAAKKYLNSIKKGKRLLRKLQPPPK; ends and bridges not checked) |  |  |  |  |  |  |  |  |  |  |  |  |  |  |  |  |  |  | 4.10 ng/100 islets/min | 5.65 ng/100 islets/min
TP-103: exemplary synthetic polypeptide analog of PACAP/VIP, amino acid sequence SEQ ID NO: 2 (HSDAVFTDNYTRLRKQVAAKKYLNSIKKGKRELLEKLLRKLK; ends and bridges not checked) |  |  |  | 20.7 mmol/L | 17.3 mmol/L | 16.9 mmol/L | 23.4 mmol/L | 23.7 mmol/L | 25.0 mmol/L | 22.9 mmol/L | 20.5 mmol/L | 17.6 mmol/L | 26.4 mmol/L | 24.6 mmol/L | 21.4 mmol/L |  |  |  |  | 
